Laboratory results published in patent publication US10933114B2, “Nutritional supplements containing a peptide component and uses thereof” (Mead Johnson Nutrition Company, priority 2014, dated 2021).

Legend:
Assay type in all cases: in vivo
LDLr knockout mice [1] = assay: Fasting plasma cholesterol and triglycerides (Examples 1 and 2)
Experimental: (§1) At t=0 mice were matched into experimental groups based on blood glucose (primary matching parameter) and body weight (secondary matching parameter). The control group received a lard based high fat diet (HFD 45 kcal % from lard; diet D12451 Research Diets, New Brunswick, USA) containing 23.7% w/w protein, 41.4% w/w carbohydrates and 23.6% w/w fat.
(§2) Blood samples were takes in week 0, 3, 6, 9, 15 and 21 after 5 hours of fasting. Blood glucose was measured using hand-held glucometer immediately. Plasma cholesterol and plasma triglyceride levels were assayed immediately in fresh EDTA-plasma. The remainder of the plasma was stored at −80° C. for analysis of insulin and ALAT, and for possible other additional follow-up analysis. Faecal samples were collected over a 48 hour period at cage level in week 0, 9, and 21. Additionally, individual faecal samples were collected in week 21 to allow individual faecal analysis. Total body fat and lean body mass were assessed non-invasively by EchoMR1 in week 0, 9, 15, and 21. Mice were placed in a constraint tube which was then inserted into the EchoMR1 for a period of approximately 30 seconds. During that time, total body fat and lean body mass were calculated and recorded and the mouse was removed from the apparatus.
Blood glucose was measured immediately using a hand-held glucometer. Total plasma cholesterol and triglyceride levels were measured using kits No. 11489437 and 11488872 (Roche Diagnostics, Almere, The Netherlands), respectively. The plasma levels of insulin (Ultrasensitive mouse insulin ELISA, Merdocia, Uppsala, Sweden) were determined by ELISA.
(§3) Example 2 describes the experimental procedures for evaluating metabolic, and cardiovascular risk factors in LDLr knockout mice fed a HFD supplemented with a >500 Da peptide fraction of the Peptide component. The same experimental procedures and methodologies as employed in Example 1 were used in Example 2.

LDLr knockout mice [2] = assay: Body composition analysis by EchoMRI (Examples 1 and 2); conditions: absolute values
Experimental: as §2, §3

LDLr knockout mice [3] = assay: Tissue weights at sacrifice, week 21 (Examples 1 and 2); conditions: sacrifice after 21 weeks
Experimental: The mice were sacrificed (un-fasted) in week 21. After sacrifice, the following samples were isolated: • Serum Sample by heart puncture • Heart including aortic root (for atherosclerosis analysis) • Aortic arch (thoracic) in −80° C. • Total liver weight, 2 pieces of sinister and caudate lobe in −80° C., medial lobe formalin • Adipose tissue • Sub cutaneous (inguinal): weight, right in −80° C., left in formalin • Epididymal: weight, right in −80° C., left in formalin • Visceral (omental): weight, part in −80° C., part in formalin • Brown adipose tissue weight part in −80° C., part in formalin • Pancreas in −80° C. • Spleen (in formalin) • Kidneys (right in −80° C., left in formalin) • Ileum (last 8 cm before caecum) in −80° C. • Colon (including faeces) in −80° C. • Eyes: left in Davidson formalin, right in −80° C. • Brain (right in −80° C., left in 4% paraformaldehyde
After 21 weeks of dietary treatment, the mice were sacrificed. Tissues were isolated and weighed.
as §3

LDLr knockout mice [4] = assay: Body weight and food intake in LDLr knockout mice on high fat diet, 21 weeks (Examples 1 and 2, Study 2)
Excerpt: Both the high fat diet and the tested diets with the peptide component, LCPUFA, and LGG were isocaloric. A control diet (low fat, 10% kcal by fat) served as a reference group. The first study, indicated as Study 1 in Table 3 below, compared the mice on the high fat diet, to mice on a high fat diet supplemented with a combination of the peptide component, LCPUFA, and LGG. Whereas, the second study, indicated as Study 2 in Table 3 below, examined the effects on the mice of the individual ingredients.
Example 1 describes the experimental procedures for evaluating metabolic, and cardiovascular risk factors in LDLr knockout mice fed and HFD and supplemented with a peptide component, LCPUFA, and LGG.
The mice used were LDLr knockout mice, which phenotypically express the main risk factors that are characteristic for metabolic syndrome and that are hallmarks of human disease. Experiments were performed to conform to the rules and regulations set forward by the Netherlands Law on Animal Experiments and were approved by a Committee on Animal Experiments (DEC; approval number 3486).
Sixty-seven male LDLr−/− mice (11-18 weeks of age at the start of the experiment) obtained from the breeding facility at TNO were used. […]

LDLr knockout mice [5] = assay: Liver function marker ALAT in pooled plasma (Examples 1 and 2)
Experimental: as §2
ALAT levels were measured at baseline, week 9 and week 21 in pooled plasma. Baseline levels were low (11 U/L). Upon HFD feeding, ALAT levels increased to 58 U/L in week 9 and further increased to 187 U/L in week 21 in the HFD group. For comparison, ALAT levels in chow fed mice reached levels of approximately 52 U/L in week 21 (data from other study). […] Also ALAT level in LGG treated mice were lower compared to HFD (66 U/L in week 9 and 124 U/L in week 21). […]

LDLr knockout mice [6] = assay: Fasting blood glucose, plasma insulin and HOMA-IR (Examples 1 and 2)
Experimental: as §1
as §2, with “Additionally, individual faecal samples were collected in week 21 to allow individual faecal analysis.” left out, “Mice were placed in a constraint tube which was then inserted into the EchoMR1 for a period of approximately 30 seconds.” left out
Blood glucose was measured immediately using a hand-held glucometer. Total plasma cholesterol and triglyceride levels were measured using kits No. 11489437 and 11488872 (Roche Diagnostics, Almere, The Netherlands), respectively. The plasma levels of insulin (Ultrasensitive mouse insulin ELISA, Merdocia, Uppsala, Sweden) were determined by ELISA. […]

Lactobacillus rhamnosus GG [LGG]
Plasma triglycerides compared to HFD control (LDLr knockout mice [1]; NHLL week 9 until week 21, Peptide component all time points): slightly, but not significantly lower compared with HFD control | Plasma cholesterol compared to other groups (LDLr knockout mice [1]; throughout the study): no significant effects on plasma cholesterol | Plasma triglycerides (LDLr knockout mice [1]; week 21): 2.0 ± 1.0 mM | Total body fat compared to HFD (LDLr knockout mice [2]): No effects on total body fat | Liver weight compared to HFD (LDLr knockout mice [3]): tended to be lower compared to the HFD | Adipose tissue weights compared to HFD (LDLr knockout mice [3]; three depots): comparable to HFD | Body weight compared to HFD (LDLr knockout mice [4]; after 21 weeks): slightly, but not significantly lower compared to HFD | Body weight (LDLr knockout mice [4]; after 21 weeks of HFD feeding): 45.8 ± 5.3 g | ALAT (LDLr knockout mice [5]; week 9, pooled plasma): 66 U/L | ALAT (LDLr knockout mice [5]; week 21, pooled plasma): 124 U/L | Fasting blood glucose, difference to HFD control (LDLr knockout mice [6]; t=9 weeks, temporary drop in HFD control absent in these groups): significant differences | Fasting plasma insulin compared to HFD control (LDLr knockout mice [6]; week 21 (NHLL, Peptide component), time not stated for LCPUFA, LGG): comparable to the HFD control group
